Biological target: T1, 17-beta-hydroxysteroid dehydrogenase 14 (Homo sapiens) (UniProt Q9BPX1)
T1 sequence (whole entry): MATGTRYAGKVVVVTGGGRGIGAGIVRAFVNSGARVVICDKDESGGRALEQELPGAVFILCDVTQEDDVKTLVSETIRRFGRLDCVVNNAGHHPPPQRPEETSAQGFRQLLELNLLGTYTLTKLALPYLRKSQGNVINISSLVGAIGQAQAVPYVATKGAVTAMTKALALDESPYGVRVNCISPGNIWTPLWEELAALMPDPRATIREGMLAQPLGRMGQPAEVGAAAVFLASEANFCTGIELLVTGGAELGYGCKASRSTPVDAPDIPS
Description: Binding affinity to human 17-beta-HSD14 assessed as change in melting temperature at 0.25 mM by thermal shift assay

ΔTm [°C]	Compound
1.5	C[C@]12CC[C@@H]3c4ccc(O)cc4CC[C@H]3[C@@H]1CCC2=O
1.5	C[C@]12CC[C@@H]3c4ccc(O)cc4CC[C@H]3[C@@H]1CC[C@@H]2O

Source: ChEMBL document CHEMBL3826976, “New Insights into Human 17β-Hydroxysteroid Dehydrogenase Type 14: First Crystal Structures in Complex with a Steroidal Ligand and with a Potent Nonsteroidal Inhibitor” (J Med Chem, 2016)
